Experimental data as given in patent US10519140B2, “Indolin-2-one derivatives” (Hoffmann-La Roche Inc., priority 2015, dated 2019).

Assays:
mice = experiment: SmartCube behavioral signature similarity analysis; type: in vivo; conditions: for discrimination rate vs Clozapine (1.0 mg/kg) / discrimination rate vs Olanzapine (0.25 mg/kg) / discrimination rate vs Risperidone (0.06 mg/kg): rate of 0.70 or lower = similar; for SmartCube behavioral signature class: i.p.
Excerpt: In addition to the reversal of L-687,414 induced hyperlocomotion experiment as described above, some compounds of the present invention have been tested in SmartCube®, an automated system in which the behaviors of compound-treated mice in response to multiple challenges are captured by digital video and analyzed with computer algorithms (Roberds et al., Frontiers in Neuroscience, 2011, Vol. 5, Art. 103, 1-4; Vadim Alexandrov, Dani Brunner, Taleen Hanania, Emer Leahy Eur. J Pharmacol. 2015, 750, 82-99). In this way, the neuro-pharmacological effects of a test compound can be predicted by similarity to major classes of compounds, such as antipsychotics, anxiolytics and antidepressants. […] In addition to the above-mentioned experiments, it has been shown that some of the compounds of formula I are also ENT1 inhibitors (equilibrative nucleoside transporter 1 protein). Therapeutic potential of ENT1 inhibitors is directly or indirectly (via effects of adenosine and/or adenosine receptor modulation) described in the literature for the treatment of the following diseases: autoimmune disease (US 2006/253263), cancer (WO9857643), viral infections and fungal infections (WO2004060902), neurodegenerative disease, Parkinson's disease, Alzheimer's disease, Huntington's disease, amyotrophic lateral sclerosis, psychiatric diseases, substance abuse, ADHD, depression, epilepsy, anxiety, schizophrenia (WO0168105, EP 1252910, EP1612210, WO2009018275), autism spectrum disorders (Susan A. Masinoa, Masahito Kawamura Jr., Jessica L. Cotea, Rebecca B. Williams, David N. Ruskina, Neuropharmacology, 2013, 68, 116-121, pain (WO2009062990, WO2009064497), inflammation, asthma, (US 2007213296, Inflammation research, 2011, 60, 75-76), cardiovascular diseases (Trends in Pharmacological science, 2006, 27, 416-425), sleep disorders, (Psychopharmacology, 1987, 91, 434-439), and ophthalmology and inflammatory retinal diseases (World Journal of Diabetes, vol. 1, 12-18), epilepsy and neurodevelopmental disorders with co-morbid epilepsy (ENT1 Inhibition Attenuates Epileptic Seizure Severity Via Regulation of Glutamatergic Neurotransmission, Xu et al, Neuromol Med (2015) 17:1-11 and Epigenetic changes induced by adenosine augmentation therapy prevent epileptogenesis, Williams-Karneshy et al J Clin Invest. 2013 August; 123(8):3552-63.
As mentioned above, some compounds have been tested in SmartCube®, an analytical system developed by PsychoGenics Inc.
SmartCube® was used to compare the behavioral signature of a test compound to a database of behavioral signatures obtained from a large set of clinically approved reference drugs, grouped per indications. In this way, the neuro-pharmacological effects of a test compound can be predicted by similarity to major classes of compounds, such as antipsychotics, anxiolytics and antidepressants. This approach is ideally suited to screen collections of existing drugs or drug candidates with previously unknown neuropharmacology, which could expedite the development of new and unexpected treatments for psychiatric disorders.
Some compounds of the present invention were injected i.p. at different doses 15 minutes before the test. At least 8 mice were used in each treatment group. Digital videos of the subjects were processed with computer vision algorithms to extract over 2000 dependent measures including frequency and duration of many different behavioral states. The results of the classifications are presented as bar charts for each compound and dose (mg/kg), the Y-axis indicates the relative probability that the test compound will show efficacy in the specific CNS indication.
Compounds of the present invention show similar signatures to those of atypical antipsychotics. An independent analysis was performed on the unclassified data to determine the similarity of the example compounds to active doses of known atypical antipsychotics. […]

mouse ENT-1 transporter = target: T1, mouse ENT-1 transporter (Mus musculus, UniProt Q9JIM1); experiment: Adenosine transport activity (ENT1, [3H]-adenosine uptake inhibition); type: cell-based; conditions: stable cells expressing mouse ENT-1; [2,8-3H]-adenosine 6 nM, 20 min
T1 construct: expressed in transfected cells
T1 sequence (Q9JIM1 1-460): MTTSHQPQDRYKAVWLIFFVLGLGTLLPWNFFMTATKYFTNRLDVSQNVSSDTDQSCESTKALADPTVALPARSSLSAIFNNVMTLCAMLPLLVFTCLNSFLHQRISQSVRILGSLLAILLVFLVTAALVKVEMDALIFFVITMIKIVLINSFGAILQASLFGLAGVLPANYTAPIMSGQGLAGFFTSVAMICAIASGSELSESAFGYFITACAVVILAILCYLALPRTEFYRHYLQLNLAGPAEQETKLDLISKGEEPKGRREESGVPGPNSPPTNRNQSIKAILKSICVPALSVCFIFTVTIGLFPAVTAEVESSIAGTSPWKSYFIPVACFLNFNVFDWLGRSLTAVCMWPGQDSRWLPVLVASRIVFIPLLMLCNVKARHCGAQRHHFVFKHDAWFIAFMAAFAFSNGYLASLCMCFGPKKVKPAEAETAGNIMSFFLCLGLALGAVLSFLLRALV
Experimental: To measure adenosine transport activity of ENT-1 mammalian cells, stable cells expressing the mouse ENT-1 transporter were plated on day 1 in 96-well culture plates at the density of 60,000 cells/well, in complete DMEM/F12 medium supplemented with glutamax, 10% FBS and 10 μg/ml puromycin. On day 2, the medium was aspirated and the cells were washed twice with uptake buffer (10 mM Hepes-Tris, pH 7.4 containing 150 mM NaCl, 1 mM CaCl2, 2.5 mM KCl, 2.5 mM MgSO4, 10 mM D-glucose) (UB). For inhibition experiments, cells were then incubated at RT with various concentrations of compounds with 1% DMSO final. Non-specific uptake was defined in the presence of 10 μM S-(4-Nitrobenzyl)-6-thioinosine (NBTI, Sigma Cat #N2255). A solution containing [2,8-^3H]-adenosine 6 nM (40 Ci/mmol, American Radiolabeled chemicals Inc, Cat #ART 0287A) was then immediately added to the wells. The plates were then incubated for 20 min with gentle shaking and the reaction was stopped by aspiration of the mixture and washing (three times) with ice-cold UB. The cells were lysed by the addition of scintillation liquid, shaken 3 hours and the radioactivity in the cells was estimated using a microplates scintillation counter (TopCount NXT, Packard).

Row | SMILES | discrimination rate vs Clozapine (1.0 mg/kg) (mice; example at 3 mg/kg i.p.) | discrimination rate vs Olanzapine (0.25 mg/kg) (mice; example at 3 mg/kg i.p.) | discrimination rate vs Risperidone (0.06 mg/kg) (mice; example at 3 mg/kg i.p.) | SmartCube behavioral signature class (mice) | IC50 (mouse ENT-1 transporter) [nM] | discrimination rate vs Clozapine (1.0 mg/kg) (mice; example at 5 mg/kg i.p.) | discrimination rate vs Olanzapine (0.25 mg/kg) (mice; example at 5 mg/kg i.p.) | discrimination rate vs Risperidone (0.06 mg/kg) (mice; example at 5 mg/kg i.p.)
1 | Cc1ncc(-c2ccc3c(c2)N(c2ccc4c(n2)N(C)C(=O)C4(C)C)C(=O)C3(C)C)cn1 [Example 39, 6-(3,3-Dimethyl-6-(2-methylpyrimidin-5-yl)-2-oxoindolin-1-yl)-1,3,3-trimethyl-1H-pyrrolo[2,3-b]pyridin-2(3H)-one] | 0.59 | 0.58 | 0.62 | similarity to atypical antipsychotics | 26.9 | – | – | –
2 | Cc1ncc(-c2ccc3c(c2)N(c2cnc(-n4ccnc4C)cn2)C(=O)C3(C)C)cn1 [Example 50, 3,3-Dimethyl-1-(5-(2-methyl-1H-imidazol-1-yl)pyrazin-2-yl)-6-(2-methylpyrimidin-5-yl)indolin-2-one] | 0.52 | 0.51 | 0.63 | similarity to atypical antipsychotics | 31.1 | – | – | –
3 | Cc1ncc(-c2ccc3c(c2)N(c2cnc(C)c(N4CCOC4=O)n2)C(=O)C3(C)C)cn1 [Example 20, 3-(6-(3,3-Dimethyl-6-(2-methylpyrimidin-5-yl)-2-oxoindolin-1-yl)-3-methylpyrazin-2-yl)oxazolidin-2-one] | 0.53 | 0.51 | 0.57 | similarity to atypical antipsychotics | 16.5 | – | – | –
4 | Cc1ncc(-c2ccc3c(c2)N(c2cncc(N4CCOC4=O)n2)C(=O)C3(C)C)cn1 [Example 15, 3-(6-(3,3-Dimethyl-6-(2-methylpyrimidin-5-yl)-2-oxoindolin-1-yl)pyrazin-2-yl)oxazolidin-2-one] | 0.57 | 0.56 | 0.59 | similarity to atypical antipsychotics | 26 | – | – | –
5 | Cc1ncc(-c2ccc3c(c2)N(c2cnc(C)c(N4CCOCC4)n2)C(=O)C3(C)C)cn1 [Example 18, 3,3-Dimethyl-1-(5-methyl-6-morpholinopyrazin-2-yl)-6-(2-methylpyrimidin-5-yl)indolin-2-one] | 0.61 | 0.62 | 0.73 | similarity to atypical antipsychotics | 97 | – | – | –
6 | Cc1ncc(-c2ccc3c(c2)N(c2cncc(N4CCOCC4)n2)C(=O)C3(C)C)cn1 [Example 1, 3,3-Dimethyl-6-(2-methylpyrimidin-5-yl)-1-(6-morpholinopyrazin-2-yl)indolin-2-one] | 0.56 | 0.59 | 0.83 | similarity to atypical antipsychotics | 39 | – | – | –
7 | Cc1ncc(-c2ccc3c(c2)N(c2cnc4c(c2)C(C)(C)C(=O)N4C)C(=O)C3(C)C)cn1 [Example 54, 5-(3,3-Dimethyl-6-(2-methylpyrimidin-5-yl)-2-oxoindolin-1-yl)-1,3,3-trimethyl-1H-pyrrolo[2,3-b]pyridin-2(3H)-one] | 0.54 | 0.51 | 0.57 | similarity to atypical antipsychotics | 23.9 | – | – | –
8 | Cc1ncc(-c2ccc3c(c2)N(c2cncc(N4CCCC4=O)n2)C(=O)C3(C)C)cn1 [Example 3, 3,3-Dimethyl-6-(2-methylpyrimidin-5-yl)-1-(6-(2-oxopyrrolidin-1-yl)pyrazin-2-yl)indolin-2-one] | – | – | – | similarity to atypical antipsychotics | 57 | 0.62 | 0.66 | 0.68
